Data published in the supplement of paper PMC11208160.

Test: recombinant barcode read abundance after kanamycin selection (control-corrected) (log10(CPM+1)); higher = more efficient recombination; sequences stand for … in AGTGCAGAGAAAATCGGCCAGTTTTCTCTGCCTGCAGTCCGCATGCCGT…AGATTTATGCAGCGGACTGCCTTTCTCCCAAAGTGATAAACCGGACAGTATCATGGACCGGTTTTCCCGGTAATCCGTATTTGCAAGGTTGGTTTCACT; site = the 11-nt target
Procedure: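 Pooled E. coli target-specificity screen for the IS621 bridge recombinase. Each library plasmid pairs an 11-nt target (CT core) with a bridge RNA whose target-binding loop (9-nt LTG + 4-nt RTG) is reprogrammed; the rest of the 177-nt WT IS621 bridge RNA scaffold is fixed. The plasmid is co-electroporated with a WT donor plasmid; recombinase is induced with 0.1 mM IPTG and recombinants are selected on kanamycin. Recombinant barcodes are sequenced, converted to CPM, averaged over two biological replicates and corrected by the unselected control CPM. Molecule = full bridge RNA written as DNA: LTG = specificity nt 1-9, RTG = reverse complement of specificity nt 8-11, in the WT scaffold.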
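Further: IS621 recombinase and bridge RNA in Escherichia coli cells.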

Sequence | recombinant barcode read abundance (log10)
AAACGACCTTGGGTTCTAACCTGTTGCCT (site AAACGACCTAG) | 1.59
AAACGACCTTGGGTTCTAACCTGTTGCCT (site CAACGACCTAG) | 0.291
AAACGACCTTGGGTTCTAACCTGTTGCCT (site GAACGACCTAG) | 0.0625
AAACGACCTTGGGTTCTAACCTGTTGCCT (site TAACGACCTAG) | 0.801
AAAGCTACTTGGGTTCTAACCTGTTGCTA (site AAAGCTACTTA) | 0.86
AAAGCTACTTGGGTTCTAACCTGTTGCTA (site TGGTAGTCTAC) | 0.0812
AAAGTGTCTTGGGTTCTAACCTGTTGCCT (site AAAGTGTCTAG) | 2.97
AAAGTGTCTTGGGTTCTAACCTGTTGCCT (site AACGTGTCTAG) | 0.373
AAAGTGTCTTGGGTTCTAACCTGTTGCCT (site AAGGTGTCTAG) | 0.489
AAAGTGTCTTGGGTTCTAACCTGTTGCCT (site AATGTGTCTAG) | 0.65
AAATCGTCTTGGGTTCTAACCTGTTGCCT (site AAATCGTCTAG) | 0.817
AAATCGTCTTGGGTTCTAACCTGTTGCCT (site AACACGTCTAG) | 0.176
AACAGCTCTTGGGTTCTAACCTGTTGCCT (site AACAGCTCTAG) | 1.75
AACAGCTCTTGGGTTCTAACCTGTTGCCT (site AACAGTTCTAG) | 0.15
AACAGTGCTTGGGTTCTAACCTGTTGCCT (site AACAATGCTAG) | 0.248
AACAGTGCTTGGGTTCTAACCTGTTGCCT (site AACACTGCTAG) | 0.219
AACAGTGCTTGGGTTCTAACCTGTTGCCT (site AACAGTGCTAG) | 0.73
AACAGTGCTTGGGTTCTAACCTGTTGCCT (site AACATTGCTAG) | 0.0547

Sequence | recombinant barcode read abundance (log10)
AACATGCCTTGGGTTCTAACCTGTTGCTT (site AACAAGCCTCA) | 0.233
AACATGCCTTGGGTTCTAACCTGTTGCTT (site AACATGCCTAA) | 0.478
AACCAGCCTTGGGTTCTAACCTGTTGCCT (site AACCAGCCTAG) | 1.33
AACCAGCCTTGGGTTCTAACCTGTTGCCT (site AACCATCCTAG) | 0
AACCAGTCTTGGGTTCTAACCTGTTGCGA (site AACCAGTCTTC) | 1.38
AACCAGTCTTGGGTTCTAACCTGTTGCGA (site AACTAGTCTTA) | 0.0824
AACGCTCCTTGGGTTCTAACCTGTTGCCT (site AACGCTCCTAG) | 0.102
AACGCTCCTTGGGTTCTAACCTGTTGCCT (site ACCGCTCCTAG) | 0
AACGCTCCTTGGGTTCTAACCTGTTGCCT (site AGCGCTCCTAG) | 0.833
AACGCTCCTTGGGTTCTAACCTGTTGCCT (site ATCGCTCCTAG) | 0.239
AACGCTCCTTGGGTTCTAACCTGTTGCGG (site AACGCTCCTCC) | 0.503
AACGCTCCTTGGGTTCTAACCTGTTGCGG (site CACGGTCCTCC) | 0.0943
AACTAAGCTTGGGTTCTAACCTGTTGCCT (site AACTAAGCTAG) | 0.336
AACTAAGCTTGGGTTCTAACCTGTTGCCT (site GGAAGCCCTTA) | 0.325
AACTCAACTTGGGTTCTAACCTGTTGCCT (site AACTAAACTAG) | 0.108
AACTCAACTTGGGTTCTAACCTGTTGCCT (site AACTCAACTAG) | 0.288
AACTCAACTTGGGTTCTAACCTGTTGCCT (site AACTGAACTAG) | 0.18
AACTCAACTTGGGTTCTAACCTGTTGCCT (site AACTTAACTAG) | 0.107
